Legend:
MEG-01 xenografts = assay: In vivo therapy of MEG-01 xenografts, tumor volume; set-up: species or system mice; conditions: for tumor volume: subcutaneous in the neck, 2 weeks
From the text: Creation of MEG-01 xenografts. Immunodeficient male athymic nude nu/nu mice were used, provided and housed by Dr. Lindner, D J from Taussig Cancer Center, Cleveland Clinic and Case Western Reserve University. The mice were checked every day. The mice were housed in filtered air flow cabinets with autoclaved bedding at a density of 5 mice/cage. They were fed autoclaved Purina Lab Rodent Chow® 5010 and HCl-acidified distilled water ad libitum and were placed in rooms with controlled temperature, humidity and 12-hr light-dark cycles. Procedures involving animals and their care were conducted in conformity with the institutional guidelines that are in compliance with national and international laws and policies (EEC Council Directive 86/609, OJL 358, Dec. 1, 1987, and the National Institutes of Health Guide for the Care and Use of Laboratory, Animals, NIH Publication 85-23, 1985).
For engraftment, cells in cell culture media were injected. MEG-01 myeloid blast crisis cells (10×10^6 cells/100 μl in cell culture media (RPMI 1640 1×, 10% FBS) were injected subcutaneously into the lower flanks of mice (left and right). Cells were counted with a hemacytometer using Trypan blue (only live cells were counted).
After 10 days the mice developed tumors large enough to start the treatment. Tumors were visible after 6-7 days from inoculation. The average weight of the mice typically ranged 30-35 g. Treatment with DMAT was started when tumors were at least 100-200 mm^3 volumes (prolate spheroid). Tumor volumes were calculated as prolate spheroid (4/3*π*(a)^2*(b), where “2a” is the minor axis and “2b” is the major axis of the prolate spheroid. “2a” and “2b” were measured with a caliper (mm). Animals were treated with DMAT for approximately 2 weeks. When tumor volumes reached a size unacceptable with the IACUC protocols, animals were sacrificed in a CO2 euthanasia chamber. Tumors were collected for further histological analysis. […]
In vivo therapy with DMAT of MEG-01 xenografts. […] Tumor diameters were measured using a caliper and tumor volume was calculated using the prolate-spheroid formula. […]

MEG-01 tumors = assay: Hematoxylin & eosin staining of MEG-01 tumors; assay type: in vivo, mice; set-up: dose or concentration left out as unconfirmed; conditions: DMAT treated vs control
Description: Hematoxylin & eosin staining of tumor tissue and organs. After euthanasia with CO2, mice were supposed to necropsy. Tumors were collected from under the skin from both flanks and were measured for the last time and then fixed in formalin fixative. Spleen, liver, kidney, brain, lungs and legs were collected and fixed. Spleens were also measured (as length, […]). Fresh tissue was immersed immediately into liquid nitrogen and kept frozen at −80° C. Fixed tissue was embedded in paraffin and next processed for H&E (the basic dye hematoxylin, and the alcohol-based synthetic material, eosin) by the Cleveland Clinic Histology Core facility. Sections (4-μm thick) were stained with hematoxylin and eosin and evaluated for pathologic changes in a blinded fashion. H&E staining gives morphological information (vascularization, normal proliferating tissue, necrosis and apoptosis of the tissue).

SW-480 cells = assay: Annexin V apoptosis/necrosis assay, SW-480; assay type: cell-based, human
Description: Apoptosis Assays using Flow Cytometry with Annexin V-FITC and propidium iodide (PI). For induction of typical apoptosis, cells were grown in the presence of 1 μM staurosporine (Sigma-Aldrich) for 6 hours. The staurosporine treated cells were stained as follows: control 1 with PI, control 2 with Annexin V-FITC and control 3 both PI and Annexin V-FITC in order to have the brightest controls for compensation and proper collection of the flow cytometry data. Cell necrosis was induced by heat shock (65° C. for 30 minutes). The stained control, both PI and Annexin V-FITC labeled, was then used as the reference in establishing the level of apoptosis induced by the treatments. Data was collected on logarithmic modes, two-colors. Annexin V-FITC corresponds to FL1 H channel, and PI to FL3H or FL2H channels.
Annexin V-FITC and PI apoptosis assay staining protocol. Apoptosis Annexin V-FITC and PI kit from BD Biosciences, CA, USA, was used. 10^5-10^6 cells were stained with 50 μg/ml PI and with 0.5 μg/ml FITC-labeled Annexin V using the staining protocol provided by the supplier. Samples were then analyzed immediately by flow cytometry.

With `CN(C)c1nc2c(Br)c(Br)c(Br)c(Br)c2[nH]1` [DMAT, 2-dimethylamino-4,5,6,7-tetrabromo-1H-benzimidazole] the tumor volume (MEG-01 xenografts; DMAT 2 mg (in DMSO) per animal per day) was “proliferation arrest in vivo in large tumors and tumor ablation in small tumors”, the tumor volume (MEG-01 xenografts; DMAT 3 mg (in DMSO) per animal per day) was “proliferation arrest in vivo for large tumors and tumor ablation in small tumors” and the “response of xenograft tumors to treatment (summary)” value (MEG-01 xenografts; mouse, in vivo) was “tumor ablation”. The “apoptotic-necrotic areas in tumors (hematoxylin and eosin)” value (MEG-01 tumors) was “significantly greater areas of apoptosis and necrosis”, the “level of apoptotic cells” value (SW-480 cells; 10 μM DMAT, 24 hours, control 1.9%) was 17.5% and the “level of necrotic cells” value (SW-480 cells; 10 μM DMAT, 24 hours, control 3.5%) was 1.9%. For the same molecule, the “level of apoptotic cells” value (SW-480 cells; 20 μM DMAT) was 27.6% and the “level of necrotic cells” value (SW-480 cells; 20 μM DMAT) was 2.4%.

From US20090054507A1, “CONTROL OF MALIGNANT CELLS BY KINASE INHIBITION” (CLEVELAND STATE UNIVERSITY, priority 2006, published 2009)
